Data set [1] can be described thus: Photolysis (uncaging) kinetics under blue/green LED irradiation; quantum yield by UV and 1H NMR with ferrioxalate actinometry. In kind it is physicochemical. To be noted: for Φ (quantum yield / QE of uncaging): irradiation at 467 nm (TC) or 520 nm (BODIPY), LED flux 12.8 Wm-2, 23° C.; for εΦ (photo-cross-section): product of ε and Φ; for wavelength of visible light that activates / uncages the cage: single photon visible light. As to the method:
(§1) After purification, the organic solvent was removed by rotovap under vacuum and the remaining aqueous concentrate was subjected to a freeze-drying system (lyophilizer-Freezone 4.5 made by LABCONCO) to isolate the purified final product. The preparation of the caged compounds and their corresponding purifications were conducted under red light in the dark. Final products were covered with aluminum foil and stored at −20° C. until further needed. Each product was characterized by Proton Nuclear Magnetic Resonance (hereinafter “1H NMR”) and Carbon-13 Nuclear Magnetic Resonance (hereinafter “^13C NMR”) using Bruker 400 MHZ NMR spectrometer instrumentation. NMR solvents such as CDCl3 and (CD3)2CO were purchased from the Cambridge Isotope Laboratories. Chemical shifts were reported relative to the internal standard peak of tetramethylsilane (TMS). […] Referring to FIG. 10, irradiation rigs constructed of two round metal containers stacked with blue LED strips (467 nm) and green LED strips (520 nm) on their inner walls were used as photoreactors to irradiate the caged molecules in photochemical studies. The light flux was determined using liquid-phase potassium ferrioxalate actinomentry.
The inventors studied the kinetics of uncaging of the two caged Glu designs (TC and BODIPY) and compared their efficiency of uncaging under identical conditions. They were irradiated with blue light at 467 nm and green light at 520 nm, respectively. Referring to FIG. 10, a temperature-controlled rig with purchased LED strips was set up.
The process for conducting the irradiation experiments comprised the following:
Sample Preparation: The caged molecules (containing the BODIPY photocage and Glutamate) were prepared in a solvent at a predetermined concentration. The solution was carefully prepared to ensure uniform dispersion of the molecules.
Irradiation Setup: The irradiation experiments were performed in a custom-built irradiation chamber equipped with the necessary safety measures (FIG. 10). The chamber was designed to prevent any unwanted exposure to the irradiation source and to maintain a controlled environment throughout the experiment.
Irradiation Source: The irradiation source used was from LED light Strips. This source was selected based on its wavelength range, intensity, and compatibility with the caged molecules' photochemistry. The source was positioned within the irradiation chamber to ensure an even and consistent illumination of the sample.
Sample Exposure: The sample solution was placed in a suitable container, ensuring that the solution thickness was uniform to minimize potential variations in the irradiation process. The container was positioned at a specific distance from the irradiation source, and the entire setup was shielded from external light sources to prevent interference.
Irradiation Protocol: The sample was irradiated for a predetermined duration, with the irradiation source emitting light at the desired wavelength range. The irradiation time was carefully controlled to maintain consistency across experiments.
Monitoring and Data Collection: Throughout the irradiation process, the changes in the sample's properties were monitored using spectroscopic techniques such as UV-Vis spectroscopy and NMR spectroscopy, depending on the specific properties being investigated. Data was collected at regular intervals to track the progress of the photochemical reaction.
Control Experiments: To validate the effects of irradiation, control experiments were conducted using identical conditions but without the presence of the caged molecules.
The quantification of the laser flux comprised the following:
A liquid-phase potassium ferrioxalate actinometer was prepared to measure the intensity of light in our irradiation rig, i.e., light flux, necessary for measurement of the quantum yields of various photochemical reactions.

The nature of data set [2]: UV-Vis absorption of caged Glu compounds. In kind it is physicochemical. To be noted: for λMax: maximum absorbance wavelength; for ε(λMax): molar attenuation constant at λMax. As to the method:
as §1
Referring to FIG. 6, a comprehensive assessment of 11 visible light-activated caged Glutamate (Glu) compounds was conducted using photophysical methods.

The conditions of data set [3]: prior art caged Glu; cited from earlier work.

We go through twelve compounds from patent US20250257045A1, “CAGED GLUTAMATE UNLEASHED BY BLUE AND GREEN LIGHT: INNOVATIVE PHOTOSENSITIVE CONTROL” (Florida Institute of Technology, Inc., priority 2024, published 2025).

Consider “7-Diethylamino-4-carboxylmethyl-thiocoumarin glutamate [TC-N-Glu (1)]”, for which, in data set [1], the “Φ (quantum yield / QE of uncaging)” value is 0.0017 ± 0.0002, the “εΦ (photo-cross-section)” value is 38.2 M⁻¹ cm⁻¹ and the “wavelength of visible light that activates / uncages the cage” value was 445 nm. For the same compound, in data set [2], the λMax is recorded as 461 nm and the “ε(λMax)” value worked out at 21800 ± 100 M⁻¹ cm⁻¹.
Take `N[C@@H](CCC(=O)N1CCc2c(OCC(=O)O)c([N+](=O)[O-])cc([N+](=O)[O-])c21)C(=O)O` [CDNI-Glu]: in data set [3], the absorption maximum is 350 nm and the “quantum yield (Φ)” value is reported as 0.5.
Regarding `CC1=C(Br)C(C)=[N+]2C1=C(COC(=O)CCC(N)C(=O)O)c1c(C)c(Br)c(C)n1[B-]2(F)F` (centres unmarked) [F-BODIPY-Br-Glu (11), 2-Amino-5-((2,8-dibromo-5,5-difluoro-1,3,7,9-tetramethyl-5H-414,514-dipyrrolo[1,2-c: 2′, 1′-f] [1,3,2]diazaborinin-10-yl)methoxy)-5-oxopentanoic acid], in data set [1], the “Φ (quantum yield / QE of uncaging)” value worked out at 0.0004 ± 0.00001 and the “εΦ (photo-cross-section)” value stood at 4.2 M⁻¹ cm⁻¹. In data set [2], the λMax worked out at 544 nm and the “ε(λMax)” value came to 10300 ± 80 M⁻¹ cm⁻¹.
Consider `CCC1=C(C)C2=C(COC(=O)CCC(N)C(=O)O)c3c(C)c(CC)c(C)n3[B-](F)(F)[N+]2=C1C` (centres unmarked) [F-BODIPY-Et-Glu (10), 2-Amino-5-((2,8-diethyl-5,5-difluoro-1,3,7,9-tetramethyl-5H-414,514-dipyrrolo[1,2-c: 2′, 1′-f] [1,3,2]diazaborinin-10-yl)methoxy)-5-oxopentanoic acid], for which, in data set [1], the “Φ (quantum yield / QE of uncaging)” value came out at 0.0077 ± 0.0004 and the “εΦ (photo-cross-section)” value was found to be 439.0 M⁻¹ cm⁻¹. Further, in data set [2], the λMax came out at 542 nm and the “ε(λMax)” value is 57200 ± 280 M⁻¹ cm⁻¹.
For the compound `CCC1=C(C)C2=C(COC(=O)NC(CCC(=O)O)C(=O)O)c3c(C)c(CC)c(C)n3[B-](F)(F)[N+]2=C1C` (centres unmarked) [F-BODIPY-Et-N-Glu (5), (((2,8-Diethyl-5,5-difluoro-1,3,7,9-tetramethyl-5H-414,514-dipyrrolo[1,2-c: 2′, 1′-f] [1,3,2]diazaborinin-10-yl)methoxy)carbonyl) glutamic acid], in data set [1], the “Φ (quantum yield / QE of uncaging)” value amounted to 0.0001 ± 0.00001 and the “εΦ (photo-cross-section)” value stood at 10.9 M⁻¹ cm⁻¹. In data set [2], the λMax turned out to be 542 nm and the “ε(λMax)” value stood at 78300 ± 400 M⁻¹ cm⁻¹.
For `CC1=CC(C)=[N+]2C1=C(COC(=O)CCC(N)C(=O)O)c1c(C)cc(C)n1[B-]2(F)F` (centres unmarked) [F-BODIPY-H-Glu (9), 2-Amino-5-((5,5-difluoro-1,3,7,9-tetramethyl-5H-414,514-dipyrrolo[1,2-c: 2′, 1′-f] [1,3,2]diazaborinin-10-yl)methoxy)-5-oxopentanoic acid], in that order: 0.0001 ± 0.00002, 4.7 M⁻¹ cm⁻¹, 517 nm and 84600 ± 500 M⁻¹ cm⁻¹.
Take `CC1=C(Br)C(C)=[N+]2C1=C(COC(=O)CCC(N)C(=O)O)c1c(C)c(Br)c(C)n1[B-]2(C)C` (centres unmarked) [Me-BODIPY-Br-Glu (8), 2-Amino-5-((2,8-dibromo-1,3,5,5,7,9-hexamethyl-5H-414,514-dipyrrolo[1,2-c: 2′, 1′-f] [1,3,2]diazaborinin-10-yl)methoxy)-5-oxopentanoic acid]: in data set [1], the “Φ (quantum yield / QE of uncaging)” value amounted to 0.65 ± 0.01, the “εΦ (photo-cross-section)” value was 35230.0 M⁻¹ cm⁻¹ and the “wavelength of visible light that activates / uncages the cage” value is 540 nm. In addition, the “Φ (quantum yield / QE of uncaging)” value in data set [1] (8) was determined as 0.65. In addition, the “Φ (quantum yield / QE of uncaging)” value in data set [1] (listed as Me-BODIPY-Br-Glu) came to 0.65. In data set [2], the λMax worked out at 531 nm and the “ε(λMax)” value stood at 54200 ± 240 M⁻¹ cm⁻¹.
As for `CC1=C(Br)C(C)=[N+]2C1=C(COC(=O)NC(CCC(=O)O)C(=O)O)c1c(C)c(Br)c(C)n1[B-]2(C)C` (centres unmarked) [Me-BODIPY-Br-N-Glu (3), (((2,8-Dibromo-1,3,5,5,7,9-hexamethyl-5H-414,514-dipyrrolo[1,2-c: 2′, 1′-f] [1,3,2]diazaborinin-10-yl)methoxy)carbonyl) glutamic acid], in data set [1], the “Φ (quantum yield / QE of uncaging)” value stood at 0.12 ± 0.04 and the “εΦ (photo-cross-section)” value is 985.6 M⁻¹ cm⁻¹. In addition, in data set [2], the λMax is 532 nm and the “ε(λMax)” value turned out to be 8213 ± 50 M⁻¹ cm⁻¹.
With `CCC1=C(C)C2=C(COC(=O)CCC(N)C(=O)O)c3c(C)c(CC)c(C)n3[B-](C)(C)[N+]2=C1C` (centres unmarked) [Me-BODIPY-Et-Glu (7), 2-Amino-5-((2,8-diethyl-1,3,5,5,7,9-hexamethyl-5H-414,514-dipyrrolo[1,2-c: 2′, 1′-f] [1,3,2]diazaborinin-10-yl)methoxy)-5-oxopentanoic acid], in data set [1], the “Φ (quantum yield / QE of uncaging)” value is listed as 0.029 ± 0.001 and the “εΦ (photo-cross-section)” value stood at 1040.0 M⁻¹ cm⁻¹. In data set [2], the λMax was 532 nm and the “ε(λMax)” value was 35700 ± 180 M⁻¹ cm⁻¹.
As to `CCC1=C(C)C2=C(COC(=O)NC(CCC(=O)O)C(=O)O)c3c(C)c(CC)c(C)n3[B-](C)(C)[N+]2=C1C` (centres unmarked) [Me-BODIPY-Et-N-Glu (2), (((2,8-Diethyl-1,3,5,5,7,9-hexamethyl-5H-414,514-dipyrrolo[1,2-c: 2′, 1′-f] [1,3,2]diazaborinin-10-yl)methoxy)carbonyl) glutamic acid], in data set [1], the “Φ (quantum yield / QE of uncaging)” value is recorded as 0.095 ± 0.003 and the “εΦ (photo-cross-section)” value turned out to be 2270.0 M⁻¹ cm⁻¹. Besides, in data set [2], the λMax came out at 532 nm and the “ε(λMax)” value stood at 24000 ± 120 M⁻¹ cm⁻¹.
Turning to `CC1=CC(C)=[N+]2C1=C(COC(=O)CCC(N)C(=O)O)c1c(C)cc(C)n1[B-]2(C)C` (centres unmarked) [Me-BODIPY-H-Glu (6), 2-Amino-5-((1,3,5,5,7,9-hexamethyl-5H-414,514-dipyrrolo[1,2-c: 2′, 1′-f] [1,3,2]diazaborinin-10-yl)methoxy)-5-oxopentanoic acid], in data set [1], the “Φ (quantum yield / QE of uncaging)” value is 0.074 ± 0.002 and the “εΦ (photo-cross-section)” value stood at 3230.0 M⁻¹ cm⁻¹. Also, in data set [2], the λMax is reported as 511 nm and the “ε(λMax)” value amounted to 43600 ± 200 M⁻¹ cm⁻¹.
For `CC1=C(I)C(C)=[N+]2C1=C(COC(=O)NC(CCC(=O)O)C(=O)O)c1c(C)c(I)c(C)n1[B-]2(C)C` (centres unmarked) [Me-BODIPY-I-N-Glu (4), (((2,8-Diiodo-1,3,5,5,7,9-hexamethyl-5H-414,514-dipyrrolo[1,2-c: 2′, 1′-f] [1,3,2]diazaborinin-10-yl)methoxy)carbonyl) glutamic acid], in that order: 0.15 ± 0.01, 1504.6 M⁻¹ cm⁻¹, 536 nm and 10030 ± 70 M⁻¹ cm⁻¹.
